Measured values published in US10953010B2 (HAMRA INVEST AB, priority 2016, dated 2021).
Like-named read-outs stand apart in the source and are kept apart here.

How the values were obtained:
[1] = tested on: patients with acute ischemic stroke treated with intravenous thrombolysis; experiment: Hemorrhagic transformations and parenchymatous hemorrhages on post-treatment CT or MR; type: in vivo, human
Protocol: (§1) Occurrence and severity of hemorrhagic transformation, intracerebral hemorrhage and cerebral edema on post-treatment computer tomography (CT) or magnetic resonance imaging (MR) were among secondary outcomes. Others were neurological outcome at 2 hours, 24 hours and 7 days after initiation of intravenous thrombolysis, functional outcome at 3 months and infarct volume at 7 days. Infarct volume evaluation will be addressed in a following publication.

[2] = tested on: patients with acute ischemic stroke treated with intravenous thrombolysis; experiment: Cerebral edema on post-treatment CT or MR; type: in vivo, human
Protocol: as §1

[3] = tested on: patients with acute ischemic stroke treated with intravenous thrombolysis; experiment: Neurological outcome (NIHSS score); type: in vivo, human; conditions: for mean lowering of the NIHSS score, estimate in brackets / mean lowering (improvement) of the NIHSS score: after adjustment for thrombectomy
Protocol: as §1
(§2) Clinical assessments, including determination of the NIHSS score were performed before intravenous thrombolysis and start of study treatment (baseline), 2 hours (day 0), day 1 and then daily until day 7. A final NIHSS score was included in the 3 months follow up examination. Assessment of any adverse event was done daily from day 0 to day 7, and finally at 3 months. CT scan was performed at baseline, 24 hours (accepted interval 22-36 hours) and, optionally, at 7 days, MRI at 24 h (accepted interval as for CT) and at 7 days. Definitions of hemorrhagic transformations, parenchymatous hemorrhages and edema are described in an earlier publication R1 and also listed in Table 1. At three months functional status was evaluated using the modified Rankin Scale (mRS) score. The three months follow up examinations were performed blindly at a different hospital than the one responsible for the acute treatment.
When looking at separate time points, linear regression with robust standard errors was used, while adjusting for thrombectomy. […] The choice of using AR1 correlation was made by comparing the Akaike Information Criterion to a model without AR1 correlation. […] The association between treatment groups and functional independence was analyzed using odds ratios. The statistical software Stata v.13 was used.

[4] = tested on: patients with acute ischemic stroke treated with intravenous thrombolysis; conditions: Imatinib treated patients
Protocol: as §1
as §2, with “Definitions of hemorrhagic transformations, parenchymatous hemorrhages and edema are described in an earlier publication R1 and also listed in Table 1.” left out, “The three months follow up examinations were performed blindly at a different hospital than the one responsible for the acute treatment.” left out
When looking at separate time points, linear regression with robust standard errors was used, while adjusting for thrombectomy. […] The association between treatment groups and functional independence was analyzed using odds ratios. […]

[5] = oral
clinical = conditions: human, plasma, po
Bcr-Abl tyrosine kinase = conditions: more potent than Imatinib; cited from earlier work

## Cc1ccc(NC(=O)c2ccc(CN3CCN(C)CC3)cc2)cc1Nc1nccc(-c2cccnc2)n1 [Imatinib]
[1]; high dose
  number of hemorrhagic transformations: 3
  parenchymatous hemorrhages, PH1 type: one
[1]; high dose group
  remote parenchymatous hemorrhages of the milder grade (PHr1): 3
[1]; initiation of Imatinib within 5 hours after stroke onset, high dose group, of 5 treated
  hemorrhages reported: no hemorrhages
[1]; initiation of Imatinib within 5 hours after stroke onset, low dose group, of 8 treated
  hemorrhages reported: 4
[1]; initiation of Imatinib within 5 hours after stroke onset, medium dose, of to treated
  hemorrhages reported: 5
[1]; low dose group
  number of hemorrhagic transformations: 6
  remote parenchymatous hemorrhages of the milder grade (PHr1): one
[1]; medium dose
  number of hemorrhagic transformations: 7
  parenchymatous hemorrhages, PH2: one
[1]; medium dose group
  remote parenchymatous hemorrhages of the milder grade (PHr1): one
[1]; reperfusion treatment completed within 4.5 hours, high dose group, of 7 treated
  hemorrhages reported: no hemorrhages
[1]; reperfusion treatment completed within 4.5 hours, low dose, of 9
  hemorrhages reported: 5
[1]; reperfusion treatment completed within 4.5 hours, medium dose, of 11 treated
  hemorrhages reported: 6
[2]; high dose
  number of cerebral edema (CED 1-3): to
  patients with the mildest form of edema, CED 1: to
[2]; initiation of Imatinib within 5 hours after stroke onset, high dose group, of 5 patients
  patients with CED 1 at follow up: 2
[2]; initiation of Imatinib within 5 hours after stroke onset, low dose, of 8 patients
  patients with CED 1 or 2: 4
[2]; initiation of Imatinib within 5 hours after stroke onset, medium dose, of to patients
  patients with CED 1 or 2: 5
[2]; low dose
  number of cerebral edema (CED 1-3): 6
  patients with the mildest form of edema, CED 1: 4
[2]; low dose group
  moderately severe edema (CED-2): Two
[2]; medium dose
  moderately severe edema (CED-2): 1
  number of cerebral edema (CED 1-3): 8
  patients with the mildest form of edema, CED 1: 7
[2]; reperfusion treatment completed within 4.5 hours, high dose group, of 7 patients
  patients with CED 1: 4
[2]; reperfusion treatment completed within 4.5 hours, low dose, of nine
  patients with CED 1 or 2: 4
[2]; reperfusion treatment completed within 4.5 hours, medium dose, of 11
  patients with CED 1 or 2: 6
[3]; after adjustment for the effect of thrombectomy
  improvement on the NIHSS per 100 mg Imatinib: 0.6 points
[3]; high dose, 3 months
  lowering of the adjusted mean NIHSS score compared to control, estimate in brackets: −4.81
[3]; high dose, 3 months, p<0.019
  lowering of the adjusted mean NIHSS score compared to control: 5 points
[3]; high dose, 7 days
  lowering of the adjusted mean NIHSS score compared to control, estimate in brackets: −5.68
[3]; high dose, 7 days, p<0.019
  lowering of the adjusted mean NIHSS score compared to control: 6 points
[3]; high dose
  mean lowering of the NIHSS score, estimate in brackets: −4.94
[3]; high dose, p<0.012
  mean lowering (improvement) of the NIHSS score: 5 points
[3]; high dose, day 1, p<0.018
  lowering of the adjusted mean NIHSS score compared to control: 5 points
[3]; low dose
  mean lowering of the NIHSS score, estimate in brackets: −2.30
[3]; low dose, p<0.259
  mean lowering (improvement) of the NIHSS score: 2 points
[3]; medium dose
  mean lowering of the NIHSS score, estimate in brackets: −3.05
[3]; medium dose, p<0.106
  mean lowering (improvement) of the NIHSS score: 3 points
[3]; treatment with Imatinib vs control
  neurological outcome: significantly improved neurological outcome
[4]
  severe disability (5 points on mRS) or death (6 points): did not occur
[5]; 400 mg daily
  mean plasma concentration of Imatinib, Day 0-Day 6: 530 ng/mL
[5]; 600 mg daily
  mean plasma concentration of Imatinib, Day 0-Day 6: 1094 ng/mL
[5]; 800 mg daily
  mean plasma concentration of Imatinib, Day 0-Day 6: 2054 ng/mL
clinical; 400 mg
  concentration at 3 h: 996 ng/mL
clinical; 600 mg
  concentration at 3 h: 1570 ng/mL
clinical; 800 mg
  concentration at 3 h: 1730 ng/mL

## Cc1cn(-c2cc(NC(=O)c3ccc(C)c(Nc4nccc(-c5cccnc5)n4)c3)cc(C(F)(F)F)c2)cn1 [Nilotinib]
Bcr-Abl tyrosine kinase
  potency relative to Imatinib in inhibiting Bcr-Abl tyrosine kinase activity: 10-30 fold
